Assays:
[1] = test system: normal hematopoietic progenitor cells; assay: Normal human CD34+ cells engrafted into NSG mice; type: in vivo; details: human BM CD34+ engrafted into NSG mice; 20 mg/kg/day i.p., 3 weeks
From the text: AML patient and normal bone marrow samples were obtained from patients in the Hematology Department of Toulouse (France), after obtaining consent in accordance with the Declaration of Helsinki[67], and according to institutional guidelines. Samples were stored at the INSERM-1037 HIMIP collection (no. DC-2008-307-CPTP1 HIMIP). For some experiments, fresh leukemic blasts recovered at diagnosis were immediately treated with DDA. In other cases, frozen cells were thawed in IMDM medium with 20% FBS. Patient characteristics are shown in supplementary data 1. Normal bone marrow cells were subjected to Ficoll-Paque density gradient separation to isolate mononuclear cells, followed by CD34+ cell separation using high-gradient magnetic-activated cell sorting, according to the manufacturer’s manual. The in vivo assays were performed with cryopreserved cells.
The engraftment of human primary AML cells was performed on NSG mice. […] Two and a half weeks after the injection of human cells, mice were treated with DDA (20 mg/kg/day by IP injection) or vehicle as control for 2, 3 weeks, after which the engraftment of human AML and normal hematopoietic cells was measured in the bone marrow, spleen and brain by quantifying the percentage of hCD45+CD33+ cells by flow cytometry. The viability of AML cells was established by quantifying the percentage of hCD45+CD33+Annexin-V- cells.

[2] = target: T1, human liver-X-receptor LXRα (Homo sapiens, UniProt Q13133); assay: LXRE-luciferase gene reporter assay in HEK293T, LXRα; type: cell-based; details: LXRα; 10 µM 22(R)HC; read-out: IC50, inhibition of LXR-dependent luciferase activity stimulated by 22(R)HC
T1 construct: expressed in transfected cells; host or cells: HEK293T
T1 sequence (Q13133 1-447): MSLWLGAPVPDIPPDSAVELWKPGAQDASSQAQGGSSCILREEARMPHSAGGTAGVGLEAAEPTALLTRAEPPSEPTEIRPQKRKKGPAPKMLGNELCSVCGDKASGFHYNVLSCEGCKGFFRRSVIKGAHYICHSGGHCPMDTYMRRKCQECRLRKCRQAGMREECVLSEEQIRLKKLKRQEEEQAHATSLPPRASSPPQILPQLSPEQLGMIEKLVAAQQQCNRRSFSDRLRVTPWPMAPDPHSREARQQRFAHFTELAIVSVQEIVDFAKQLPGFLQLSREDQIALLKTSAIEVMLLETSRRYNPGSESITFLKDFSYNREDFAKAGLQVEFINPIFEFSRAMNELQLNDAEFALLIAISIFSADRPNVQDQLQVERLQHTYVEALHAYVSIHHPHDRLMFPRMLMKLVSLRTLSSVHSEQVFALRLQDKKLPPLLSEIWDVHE
T1 sequence (P48443 1-463 partner): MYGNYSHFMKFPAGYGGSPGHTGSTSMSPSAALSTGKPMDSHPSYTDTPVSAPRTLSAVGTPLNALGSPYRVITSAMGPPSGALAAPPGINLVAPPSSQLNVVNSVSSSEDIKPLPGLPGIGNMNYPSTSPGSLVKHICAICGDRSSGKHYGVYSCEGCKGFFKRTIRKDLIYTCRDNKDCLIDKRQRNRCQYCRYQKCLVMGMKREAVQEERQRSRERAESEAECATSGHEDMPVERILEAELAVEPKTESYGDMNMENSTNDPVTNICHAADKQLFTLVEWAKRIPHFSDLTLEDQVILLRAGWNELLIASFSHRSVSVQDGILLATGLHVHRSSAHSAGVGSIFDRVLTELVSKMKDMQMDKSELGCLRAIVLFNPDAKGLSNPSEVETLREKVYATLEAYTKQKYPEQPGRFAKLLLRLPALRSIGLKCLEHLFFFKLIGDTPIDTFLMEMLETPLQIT
From the text: HEK293T were used for luciferase assays. Cells were transfected using the PolyEthylenImine (PEI) method with human retinoid-X receptor (RXRγ) and human liver-X-receptors (LXRα or LXRβ) with LXRE-Luc; RXRγ and human farnesoid X receptor (FXR) with EcRE-Luc; RXRγ and human steroid and xenobiotic X receptor (SXR) with DR4-Luc; RXRγ and human peroxisome proliferator activated receptors (PPARα, or PPARγ) with PPRE-Luc; RXRγ and human retinoic acid receptor (RARα) with DR1-Luc; human AHR and human ARNT with a DRE-Luc; human vitamin D receptor (VDR) with VDRE-Luc. Cells were transfected with plasmids encoding human glucocorticoid receptor (GR), progesterone receptor (PR), or androgen receptor (AR) with MMTV-Luc; or estrogen receptors (ERα and ERβ) with an ERE-Luc. The day after transfection with the luciferase reporter gene construct, cells were seeded in 12-well plates (50,000 cells per well). After 6 h, cells were then treated with the following ligands dissolved in ethanol: 10 nM estradiol (E2) for ERα and ERβ; 10 nM R1881 for AR; 10 nM R5020 for PR; 10 nM dexamethasone for GR; 10 µM fenofibrate for PPARα; 100 nM rosiglitazone (BRL 49653) for PPARγ; 100 nM cis-retinoic acid (cRA) for RAR; 10 nM dioxine for AHR, 10 µM rifampicine for SXR and 10 µM 22(R) hydroxycholesterol (22(R)HC) for LXRα and LXRβ. At the end of each treatment, cells were lysed in 100 μl lysis buffer (Promega). Luciferase activity was measured using the luciferase assay reagent (Promega), according to the manufacturer’s instructions. Protein concentrations were measured using the Bradford method to normalize luciferase activities. For each condition, luciferase activity was calculated from the data of three independent wells.

For CC(C)CCC[C@@H](C)[C@H]1CC[C@H]2[C@@H]3C[C@@H](NCCc4cnc[nH]4)[C@@]4(O)C[C@@H](O)CC[C@]4(C)[C@H]3CC[C@]12C [DDA, Dendrogenin A], the “effect on normal hematopoietic progenitor cells” value [1] was “no effect” and the IC50 [2] was 362 ± 52 nM.

— article PMC5712521, “Dendrogenin A drives LXR to trigger lethal autophagy in cancers” (Nature Communications, 2017)
